According to patent US20240108702A1, “Use Of Naturally Occurring Cyclic Peptides For Treatment Of SARS-COV-2 Infection” (The University of Southern California, priority 2021, published 2024):
Where a SMILES comes first, the peptide text is derived from it. Bridges are numbered along the chain shown (N, C = ends).

Tests used:
TMPRSS2 = TMPRSS2 (Homo sapiens, UniProt O15393); experiment: Cellular TMPRSS2 inhibition assay in Caco-2 cells; type: cell-based; set-up: using Caco-2 and Calu3 cells, both of which express surface TMPRSS2; endogenous in cells; host or cells: Caco-2 cells
Experimental: Caco-2 cells (1×10^5 per well) were incubated in 96 well plates with 0 to 50 μg/ml of the indicated peptide in the presence of a TMPRSS2 substrate (Boc-Leu-Gly-Arg-AMC) in 50 mM Tris-HCl, pH 7.4. Substrate conversion was monitored in a fluorescence plate reader for 2 hours and inhibition of enzyme activity was expressed relative to a solvent control.
TMPRSS2 inhibition assays. Peptides (0-50 μg/ml) were tested for their inhibitory activities against TMPRSS2 in cellular assays using Vero E6 cells, Caco-2 cells, or Calu-3 cells using standard conditions. TMPRSS2 activity was assayed in real time for 120 min by monitoring the cleavage of the TMPRSS2 substrate, Boc-Leu-Gly-Arg-AMC. Following the 2 h enzyme assay, cells were evaluated for viability using the CellTiter-Glo cellular toxicity assay.

[1] = Single-dose i.v. bolus PK study in mice; type: in vivo, CD-1 mice
Experimental: Mouse studies: All procedures and protocols involving the use of animals were reviewed and approved by the University of Southern California (USC) IACUC (protocol #20538). Briefly, male (31.7-37.7 g) and female (25.2-35.6 g) CD-1 mice (Charles River Laboratories) were administered a single 5 mg/kg i.v. bolus injection of Peptide 1 (SEQ ID NO. 1) into the lateral tail vein. A total of 24 mice were separated into six groups (n=2/sex/group), with each group assigned to a single, pre-determined time point. Blood samples were collected at 0.25, 1, 2, 4, 8, and 24 h post-dose via terminal cardiac puncture. The collected samples were centrifuged to separate the plasma and stored at −80° C. until analysis.
Bioanalytical analysis: Clarified plasma samples from mice were directly diluted into 5% formic acid/5% acetonitrile. Quantitative analysis of Peptide 1 (SEQ ID NO. 1) was performed by LC-MS/MS with reverse-phase liquid chromatography (XBridge™ BEH phenyl 3.5 μm 3×100 mm column, Waters #186003328) on an Acquity™ H-Class UPLC (Waters) coupled to a Xevo™ TQ-S tandem electrospray mass spectrometry running MassLynx™ V4.1 (Waters). Quantitative mass spectroscopy was performed by multiple-reaction monitoring transition 417.32>517.21, with the area under the curve determined by TargetLynx™ (Waters). A synthetic theta defensin-like peptide was used as an internal standard (IS). The lower limit of quantification (LLOQ) of the assay was 1 ng/mL. Intra- and inter-assay precision (percent coefficient of variation [CV]) was ≤3%, and intra and interassay accuracy (% relative error) was ≤5%. Plasma Peptide 1 (SEQ ID NO. 1) concentration analyses for rats and cynomolgus monkey studies were performed at MicroConstants (San Diego, CA) by HPLC using a Mac-Mod™ Analytical ACE C4 column. The mobile phase was nebulized using heated nitrogen in Z-Spray source/interface set to electrospray positive ionization mode, and the compound was detected using MS/MS (LLOQ=10.0 ng/mL). Details of the method are summarized in the MicroConstants method No. MN20038. Clarified plasma samples from a serially sampled vervet were quantified by ultra-performance liquid chromatography Waters Acquity H-Class UPLC. […] Peptide 1 (SEQ ID NO. 1) peak and mass confirmation was performed on post PDA eluent using a Micromass Quattro Ultima™ mass spectrometer with MassLynx™ 4.1 (Waters). The lower limit of quantitation (LLOQ) ranged from 10-30 ng/mL (determined by sample background) to an upper limit of 50 ug/mL. RTD-2 (10 ug/mL) was used as an internal standard. Intra- and interassay precision (% coefficient of variation [CV]) was ≤3%, and intra and interassay accuracy (% relative error) was ≤5%.
Pharmacokinetic analysis: Non-compartmental analysis (NCA) was performed using Phoenix WinNonlin™ (version 8.3.1, Certara USA, Inc.; Princeton NJ) to determine the PK parameters in mice, rats, cynomolgus monkeys, and the vervet. Nominal sampling times were used in the analysis, and data below the lower limit of quantification of the assay were excluded from the analysis. The maximum plasma concentration (Cmax) was determined from visual inspection of the data. In addition, the following parameters were calculated: terminal elimination rate constant (λz), area under the curve extrapolated to infinity (AUC0-∞), area under the curve to dosing interval (AUCτ), mean residence time (MRT), clearance (CL), and volume of distribution at steady state (Vss). AUC was calculated using the linear up, log down method, and the λz was calculated using up to the last four data points of the log-linear terminal phase of the concentration-time profile. Due to sparsely sampled data in mice and rats, the sparse sampling calculation methodology in Phoenix WinNonlin™ was used, which generated a single estimate without standard error for all parameters, except for Cmax. For rats and cynomolgus monkeys, all parameters were calculated using sampling times relative to the beginning of the i.v. infusion.

in vivo = conditions: both, cynomolgus monkey, iv
[2] = both sexes, CD-1, mouse, plasma, iv, single 5 mg/kg i.v. bolus

Chain of TMPRSS2 (O15393 whole entry): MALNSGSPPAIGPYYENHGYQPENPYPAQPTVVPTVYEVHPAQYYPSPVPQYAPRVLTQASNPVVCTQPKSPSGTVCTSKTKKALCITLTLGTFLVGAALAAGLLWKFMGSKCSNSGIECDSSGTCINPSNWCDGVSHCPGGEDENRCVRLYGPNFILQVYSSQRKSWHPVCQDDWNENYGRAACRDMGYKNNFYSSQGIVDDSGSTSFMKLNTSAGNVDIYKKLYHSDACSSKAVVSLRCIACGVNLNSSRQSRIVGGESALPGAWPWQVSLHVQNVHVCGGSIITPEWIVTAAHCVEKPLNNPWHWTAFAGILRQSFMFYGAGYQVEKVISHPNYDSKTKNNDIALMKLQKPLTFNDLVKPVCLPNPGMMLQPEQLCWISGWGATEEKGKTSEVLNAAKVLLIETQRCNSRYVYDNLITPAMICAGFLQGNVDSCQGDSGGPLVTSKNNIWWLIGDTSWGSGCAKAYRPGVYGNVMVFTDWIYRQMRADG

CC[C@H](C)[C@@H]1NC(=O)[C@@H]2CSSC[C@H](NC(=O)[C@H](CCCNC(=N)N)NC(=O)[C@@H]3CSSC[C@H](NC1=O)C(=O)N[C@@H]([C@@H](C)O)C(=O)N[C@@H](CCCNC(=N)N)C(=O)NCC(=O)N[C@@H](Cc1ccccc1)C(=O)N3)C(=O)N[C@@H](CC(C)C)C(=O)N[C@H]1CSSC[C@H](NC(=O)[C@H](C(C)C)NC(=O)CNC(=O)[C@H](CCCNC(=N)N)NC(=O)[C@H](CCCNC(=N)N)NC1=O)C(=O)N[C@@H](CCCNC(=N)N)C(=O)N2 [Peptide 1] (cyclo(GFCRCLCRRGVCRCICTR); disulfide 3-16, 5-14, 7-12)
IC50 (TMPRSS2): 3.12 to 3.84 µM
AUC [1, 2]: 12300 ng·h/mL
AUC(0-inf) [1, 2]: 12500 ng·h/mL
MRT [1, 2]: 2.62 h
clearance [1, 2]: 6.67 mL/min/kg
Cmax ([1]; both sexes, CD-1, mouse, plasma, iv, single 5 mg/kg i.v. bolus, estimate (SE)): 8920 ng/mL
Vd ([1]; both sexes, CD-1, mouse, plasma, iv, single 5 mg/kg i.v. bolus, read-out: Vss): 1.05 L/kg
λz ([1]; single 5 mg/kg i.v. bolus): 0.114 h⁻¹
elimination phase half-life ([1]; single i.v. bolus): 6.05 h
MTD at 7 days (in vivo): 15 mg/kg
NOAEL at 7 days (in vivo; 15 mg/kg): 15 mg/kg/day
